Data: patent US9717728B2, “Pharmaceutical combination comprising a B-Raf inhibitor and a histone deacetylase inhibitor and their use in the treatment of proliferative diseases” (NOVARTIS AG, priority 2012, dated 2017)
Entries after “also recorded” stand apart in the source; their conditions may differ.

What was measured:
Mel-P3-Post [1] = test: z-VAD-fmk-FITC staining for caspase positive cells; type: cell-based, human; conditions: 48 hours
From the text: (§1) Cell lines: Mel-PX-Pre and Mel-PX-post represent cell lines derived from patient-X pre- and post-treatment with vemurafenib.

Melanocytes (NHEM) = test: Cell cycle staining and sub-G1 analysis of dead cells (flow cytometry); type: cell-based; conditions: for CELL CYCLE AVG G1 / CELL CYCLE AVG G2/M / CELL CYCLE AVG S / sub-G1 %: Melanocytes (NHEM), 48 hours
Mel-P3-Post [2] = test: as above; type: cell-based, human; conditions: for CELL CYCLE AVG G1 / CELL CYCLE AVG G2/M / CELL CYCLE AVG S / sub-G1 %: Mel-P3-Post, 48 hours
From the text: as §1

Mel-P3-Pre [3] = test: as above; type: cell-based, human; conditions: for CELL CYCLE AVG G1 / CELL CYCLE AVG G2/M / CELL CYCLE AVG S / sub-G1 %: Mel-P3-Pre, 48 hours
From the text: as §1

Mel-P4-Post = test: Sub-G1 analysis of dead cells; type: cell-based, human; conditions: 48 hours
From the text: as §1

Mel-P4-Pre = test: Sub-G1 analysis of dead cells; type: cell-based, human; conditions: 48 hours
From the text: as §1

Mel-P1-Pre = test: Sub-G1 analysis of dead cells; type: cell-based, human; conditions: 48 hours
From the text: as §1

Mel-P1-Post = test: Sub-G1 analysis of dead cells; type: cell-based, human; conditions: 48 hours
From the text: as §1

Mel-P3-Post [4] = test: Annexin-V staining per quadrant (flow cytometry); type: cell-based, human; conditions: 48 hours
From the text: as §1

Mel-P3-Pre [5] = test: Annexin-V staining per quadrant (flow cytometry); type: cell-based, human; conditions: 48 hours
From the text: as §1

Mel-P3-Post [6] = test: JC1 staining for mitochondrial depolarisation; type: cell-based, human
From the text: as §1

melanoma lines = test: Cell cycle arrest and apoptosis in matched pre and post melanoma cell lines; type: cell-based, human; conditions: B-Raf-mutant melanoma, listed as B-Raf inhibitor of Formula (I)
Protocol: The B-Raf inhibitor of Formula (I) was tested on the matched pre and post cell lines established from patients before treatment and after progression on vemurafenib treatment. […] Combining panobinostat with the B-Raf inhibitor of Formula (I), caused a synergistic increase in apoptosis in melanoma lines. The increase in apoptosis was also observed in the “post” cell lines which had previously acquired resistance to the B-Raf inhibitor, vemurafenib.

Cc1[nH]c2ccccc2c1CCNCc1ccc(/C=C/C(=O)NO)cc1 [HDAI, reference compound]
z-VAD-fmk positive (Mel-P3-Post [1]; B-Raf 0 uM, HDAI 30 nM): 23 | cell death of melanocytes (in words) (Melanocytes (NHEM)): did not die | CELL CYCLE AVG G1 (Melanocytes (NHEM); B-Raf 0 uM, HDAI 30 nM): 88 | CELL CYCLE AVG G2/M (Melanocytes (NHEM); B-Raf 0 uM, HDAI 30 nM): 7 | CELL CYCLE AVG S (Melanocytes (NHEM); B-Raf 0 uM, HDAI 30 nM): 5 | sub-G1 % (Melanocytes (NHEM); B-Raf 0 uM, HDAI 30 nM): 1% | CELL CYCLE AVG G1 (Mel-P3-Post [2]; B-Raf 0 uM, HDAI 30 nM): 69 | CELL CYCLE AVG G2/M (Mel-P3-Post [2]; B-Raf 0 uM, HDAI 30 nM): 22 | CELL CYCLE AVG S (Mel-P3-Post [2]; B-Raf 0 uM, HDAI 30 nM): 9 | sub-G1 % (Mel-P3-Post [2]; B-Raf 0 uM, HDAI 30 nM): 15% | CELL CYCLE AVG G1 (Mel-P3-Pre [3]; B-Raf 0 uM, HDAI 30 nM): 70 | CELL CYCLE AVG G2/M (Mel-P3-Pre [3]; B-Raf 0 uM, HDAI 30 nM): 21 | CELL CYCLE AVG S (Mel-P3-Pre [3]; B-Raf 0 uM, HDAI 30 nM): 9 | sub-G1 % (Mel-P3-Pre [3]; B-Raf 0 uM, HDAI 30 nM): 17% | sub-G1 % (Mel-P4-Post; B-Raf 0 uM, HDAI 30 nM): 24% | sub-G1 % (Mel-P4-Pre; B-Raf 0 uM, HDAI 30 nM): 40% | sub-G1 % (Mel-P1-Pre; B-Raf 0 uM, HDAI 30 nM): 21% | sub-G1 % (Mel-P1-Post; B-Raf 0 uM, HDAI 30 nM): 14% | Annexin Staining per quadrant. Lower Left* (“healthy” cells) (Mel-P3-Post [4]; B-Raf 0 uM, HDAI 30 nM): 83 | Annexin Staining per quadrant. Lower Right (Mel-P3-Post [4]; B-Raf 0 uM, HDAI 30 nM): 9 | Annexin Staining per quadrant. Upper Left (Mel-P3-Post [4]; B-Raf 0 uM, HDAI 30 nM): 0 | Annexin Staining per quadrant. Upper Right (Mel-P3-Post [4]; B-Raf 0 uM, HDAI 30 nM): 8 | Annexin Staining per quadrant. Lower Left* (“healthy” cells) (Mel-P3-Pre [5]; B-Raf 0 uM, HDAI 30 nM): 85 | Annexin Staining per quadrant. Lower Right (Mel-P3-Pre [5]; B-Raf 0 uM, HDAI 30 nM): 8 | Annexin Staining per quadrant. Upper Left (Mel-P3-Pre [5]; B-Raf 0 uM, HDAI 30 nM): 1 | Annexin Staining per quadrant. Upper Right (Mel-P3-Pre [5]; B-Raf 0 uM, HDAI 30 nM): 6 | Depolarised mitochondria (Mel-P3-Post [6]; B-Raf 0 uM, HDAI 30, 48 hours): 86

COC(=O)N[C@@H](C)CNc1nccc(-c2cn(C(C)C)nc2-c2cc(Cl)cc(NS(C)(=O)=O)c2F)n1 [B-Raf]
z-VAD-fmk positive (Mel-P3-Post [1]; B-Raf 5 uM, HDAI 0 nM): 14 | cell death of melanocytes (in words) (Melanocytes (NHEM)): did not die | CELL CYCLE AVG G1 (Melanocytes (NHEM); B-Raf 10 uM, HDAI 0 nM): 98 | CELL CYCLE AVG G2/M (Melanocytes (NHEM); B-Raf 10 uM, HDAI 0 nM): 1 | CELL CYCLE AVG S (Melanocytes (NHEM); B-Raf 10 uM, HDAI 0 nM): 1 | sub-G1 % (Melanocytes (NHEM); B-Raf 10 uM, HDAI 0 nM): 3% | CELL CYCLE AVG G1 (Mel-P3-Post [2]; B-Raf 0.1 uM, HDAI 0 nM): 65 | CELL CYCLE AVG G2/M (Mel-P3-Post [2]; B-Raf 0.1 uM, HDAI 0 nM): 12 | CELL CYCLE AVG S (Mel-P3-Post [2]; B-Raf 0.1 uM, HDAI 0 nM): 23 | sub-G1 % (Mel-P3-Post [2]; B-Raf 0.1 uM, HDAI 0 nM): 2% | CELL CYCLE AVG G1 (Mel-P3-Post [2]; B-Raf 1 uM, HDAI 0 nM): 68 | CELL CYCLE AVG G2/M (Mel-P3-Post [2]; B-Raf 1 uM, HDAI 0 nM): 10 | CELL CYCLE AVG S (Mel-P3-Post [2]; B-Raf 1 uM, HDAI 0 nM): 22 | sub-G1 % (Mel-P3-Post [2]; B-Raf 1 uM, HDAI 0 nM): 2% | CELL CYCLE AVG G1 (Mel-P3-Post [2]; B-Raf 10 uM, HDAI 0 nM): 72 | CELL CYCLE AVG G2/M (Mel-P3-Post [2]; B-Raf 10 uM, HDAI 0 nM): 7 | CELL CYCLE AVG S (Mel-P3-Post [2]; B-Raf 10 uM, HDAI 0 nM): 21 | sub-G1 % (Mel-P3-Post [2]; B-Raf 10 uM, HDAI 0 nM): 4% | G1 arrest (in words) (Mel-P3-Post [2]; Mel-P3 “post” cell line): weaker G1 arrest | apoptosis (in words) (Mel-P3-Post [2]; Mel-P3 “post” cell line): no apoptosis | CELL CYCLE AVG G1 (Mel-P3-Pre [3]; B-Raf 0.1 uM, HDAI 0 nM): 85 | CELL CYCLE AVG G2/M (Mel-P3-Pre [3]; B-Raf 0.1 uM, HDAI 0 nM): 6 | CELL CYCLE AVG S (Mel-P3-Pre [3]; B-Raf 0.1 uM, HDAI 0 nM): 10 | sub-G1 % (Mel-P3-Pre [3]; B-Raf 0.1 uM, HDAI 0 nM): 10% | CELL CYCLE AVG G1 (Mel-P3-Pre [3]; B-Raf 1 uM, HDAI 0 nM): 90 | CELL CYCLE AVG G2/M (Mel-P3-Pre [3]; B-Raf 1 uM, HDAI 0 nM): 6 | CELL CYCLE AVG S (Mel-P3-Pre [3]; B-Raf 1 uM, HDAI 0 nM): 5 | sub-G1 % (Mel-P3-Pre [3]; B-Raf 1 uM, HDAI 0 nM): 12% | CELL CYCLE AVG G1 (Mel-P3-Pre [3]; B-Raf 10 uM, HDAI 0 nM): 92 | CELL CYCLE AVG G2/M (Mel-P3-Pre [3]; B-Raf 10 uM, HDAI 0 nM): 4 | CELL CYCLE AVG S (Mel-P3-Pre [3]; B-Raf 10 uM, HDAI 0 nM): 4 | sub-G1 % (Mel-P3-Pre [3]; B-Raf 10 uM, HDAI 0 nM): 20% | G1 arrest (in words) (Mel-P3-Pre [3]; Mel-P3 “pre” cell line): potent G1 arrest | apoptosis (in words) (Mel-P3-Pre [3]; Mel-P3 “pre” cell line): low level apoptosis | cell cycle arrest and apoptosis (in words) (melanoma lines): potent cell cycle inhibition and cell line-dependent apoptosis; also recorded: potent G1 arrest and cell-line dependent apoptosis | sub-G1 % (Mel-P4-Post; B-Raf 10 uM, HDAI 0 nM): 54% | sub-G1 % (Mel-P4-Pre; B-Raf 10 uM, HDAI 0 nM): 58% | sub-G1 % (Mel-P1-Pre; B-Raf 10 uM, HDAI 0 nM): 10% | sub-G1 % (Mel-P1-Post; B-Raf 10 uM, HDAI 0 nM): 10% | Annexin Staining per quadrant. Lower Left* (“healthy” cells) (Mel-P3-Post [4]; B-Raf 0.1 uM, HDAI 0 nM): 91 | Annexin Staining per quadrant. Lower Right (Mel-P3-Post [4]; B-Raf 0.1 uM, HDAI 0 nM): 5 | Annexin Staining per quadrant. Upper Left (Mel-P3-Post [4]; B-Raf 0.1 uM, HDAI 0 nM): 0 | Annexin Staining per quadrant. Upper Right (Mel-P3-Post [4]; B-Raf 0.1 uM, HDAI 0 nM): 4 | Annexin Staining per quadrant. Lower Left* (“healthy” cells) (Mel-P3-Post [4]; B-Raf 1 uM, HDAI 0 nM): 91 | Annexin Staining per quadrant. Lower Right (Mel-P3-Post [4]; B-Raf 1 uM, HDAI 0 nM): 5 | Annexin Staining per quadrant. Upper Left (Mel-P3-Post [4]; B-Raf 1 uM, HDAI 0 nM): 0 | Annexin Staining per quadrant. Upper Right (Mel-P3-Post [4]; B-Raf 1 uM, HDAI 0 nM): 4 | Annexin Staining per quadrant. Lower Left* (“healthy” cells) (Mel-P3-Post [4]; B-Raf 10 uM, HDAI 0 nM): 89 | Annexin Staining per quadrant. Lower Right (Mel-P3-Post [4]; B-Raf 10 uM, HDAI 0 nM): 5 | Annexin Staining per quadrant. Upper Left (Mel-P3-Post [4]; B-Raf 10 uM, HDAI 0 nM): 0 | Annexin Staining per quadrant. Upper Right (Mel-P3-Post [4]; B-Raf 10 uM, HDAI 0 nM): 6 | Annexin Staining per quadrant. Lower Left* (“healthy” cells) (Mel-P3-Pre [5]; B-Raf 0.1 uM, HDAI 0 nM): 88 | Annexin Staining per quadrant. Lower Right (Mel-P3-Pre [5]; B-Raf 0.1 uM, HDAI 0 nM): 7 | Annexin Staining per quadrant. Upper Left (Mel-P3-Pre [5]; B-Raf 0.1 uM, HDAI 0 nM): 0 | Annexin Staining per quadrant. Upper Right (Mel-P3-Pre [5]; B-Raf 0.1 uM, HDAI 0 nM): 4 | Annexin Staining per quadrant. Lower Left* (“healthy” cells) (Mel-P3-Pre [5]; B-Raf 1 uM, HDAI 0 nM): 85 | Annexin Staining per quadrant. Lower Right (Mel-P3-Pre [5]; B-Raf 1 uM, HDAI 0 nM): 8 | Annexin Staining per quadrant. Upper Left (Mel-P3-Pre [5]; B-Raf 1 uM, HDAI 0 nM): 0 | Annexin Staining per quadrant. Upper Right (Mel-P3-Pre [5]; B-Raf 1 uM, HDAI 0 nM): 6 | Annexin Staining per quadrant. Lower Left* (“healthy” cells) (Mel-P3-Pre [5]; B-Raf 10 uM, HDAI 0 nM): 73 | Annexin Staining per quadrant. Lower Right (Mel-P3-Pre [5]; B-Raf 10 uM, HDAI 0 nM): 13 | Annexin Staining per quadrant. Upper Left (Mel-P3-Pre [5]; B-Raf 10 uM, HDAI 0 nM): 1 | Annexin Staining per quadrant. Upper Right (Mel-P3-Pre [5]; B-Raf 10 uM, HDAI 0 nM): 13 | Depolarised mitochondria (Mel-P3-Post [6]; B-Raf 5 uM, HDAI 0, 48 hours): 88
